In US20110160262A1, “Method of treating retinal vein occlusion” (SANTEN PHARMACEUTICAL CO., LTD., priority 2005, published 2011):

Key:
[1] = test system: laser-induced choroidal neovascularization; assay: laser-induced choroidal neovascularization in rats; type: in vivo; conditions: rat
Excerpt: In order to study the inhibitory effect of compound represented by the general formula [I] or a salt thereof on angiogenesis, the effects of nafamostat, FUT-187 and camostat, which are compounds represented by the general formula [I] or salts thereof, on laser-induced choroidal neovascularization in rats were studied. As a comparative compound, ethyl-4-(6-guanidinohexanoyloxy)benzoate methanesulfonate (hereinafter referred to as “gabexate”) represented by the following formula [III] was used.
A rat was given systemic anesthesia by intramuscular administration of 1 ml/kg of a mixed solution of a 5% (w/v) ketamine hydrochloride injectable solution and a 2% xylazine hydrochloride injectable solution (7:1), and a 0.5% (w/v) tropicamide-0.5% phenylephrine hydrochloride ophthalmic solution was instilled into the eyes to cause mydriasis, and then photocoagulation was carried out with a krypton laser photocoagulation apparatus. The photocoagulation was carried out in a posterior pole portion of ocular fundus at eight spots per eye sparsely by focusing on the retinal deep layer avoiding thick retinal vessels (coagulation conditions: spot size: 100 μm, output: 100 mW, coagulation time: 0.1 sec.). After the photocoagulation, the ocular fundus was photographed, and the site where the laser was irradiated was confirmed.
Nafamostat was dissolved in a 5% (w/v) glucose solution (prepared by dissolving D-glucose in physiological saline) to give a final concentration of 25 mg/ml, and the resulting nafamostat solution was intraperitoneally administered once a day at a dose of 1 ml/kg for 7 days including the day of surgery from the photocoagulation surgery. In the same manner, FUT-187 solutions at 25 mg/ml and 125 mg/ml and a camostat solution at 125 mg/ml were prepared, and each of the solutions was intraperitoneally administered once a day at a dose of 1 ml/kg for 7 days including the day of surgery from the photocoagulation surgery. In a comparative compound administration group, a solution obtained by dissolving gabexate in a glucose solution to give a final concentration of 50 mg/ml was administered in the same manner as above. In a vehicle administration group, a 5% (w/v) glucose solution was administered in the same manner.
On day 7 after photocoagulation, 0.1 ml of a 10% fluorescein solution was injected into the tail vein, and fluorescence fundus photography was carried out. In the fluorescence fundus photography, a spot where fluorescence leakage was not observed (absence of angiogenesis) was judged as negative, and a spot where fluorescence leakage was observed was judged as positive. When there are two photocoagulation sites where a little fluorescence leakage was observed, they were judged as positive (presence of angiogenesis). A neovascularization incidence rate was calculated in accordance with Equation 1. The neovascularization incidence rate was calculated based on the positive spot number relative to the 8 spots irradiated with a laser, and a choroidal neovascularization inhibition rate was calculated in accordance with Equation 2. The number of animals in each administration group is 4 to 7.
Each of nafamostat and FUT-187 was dissolved in a 1% (w/v) methyl cellulose solution to give a final concentration of 20 mg/ml, and the resulting solution was orally administered three times a day at a dose of 5 ml/kg for 7 days including the day of surgery from the photocoagulation surgery. In the same manner, camostat was suspended in a 1% (w/v) methyl cellulose solution to give a final concentration of 20 mg/ml, and the resulting suspension was orally administered three times a day at a dose of 5 ml/kg for 7 days including the day of surgery from the photocoagulation surgery. In a vehicle administration group, a 1% (w/v) methyl cellulose solution was administered in the same manner.
The evaluation was carried out with the same method as described above. The case number in each administration group is 6 to 7. […]

[2] = molecular target: trypsin (Homo sapiens, UniProt P07477); conditions: known activity; cited from earlier work
[3] = intraperitoneal administration (Table 1)
[4] = intraperitoneal, 25 mg/kg/day once a day for 7 days, evaluated day 7 after photocoagulation
[5] = oral, 300 mg/kg/day (three times a day) for 7 days, evaluated day 7
[6] = oral, intravitreal and subconjunctival administration (Tables 2 to 4)

SMILES	choroidal neovascularization inhibitory effect (in words) [1, 3]	Choroidal neovascularization inhibition rate (%) [1, 4]	Choroidal neovascularization inhibition rate (%) ([1]; intravitreal, 10 nmol/eye, immediately after photocoagulation and on day 3, evaluated day 7)	Choroidal neovascularization inhibition rate (%) [1, 5]	choroidal neovascularization inhibitory effect (in words) [1, 6]	Choroidal neovascularization inhibition rate (%) ([1]; subconjunctival, 100 μg/eye/day once a day, evaluated day 7)	trypsin inhibitory activity (in words) [2]	Choroidal neovascularization inhibition rate (%) ([1]; intraperitoneal, 125 mg/kg/day once a day for 7 days, evaluated day 7 after photocoagulation)	Choroidal neovascularization inhibition rate (%) ([1]; intraperitoneal, 50 mg/kg/day once a day for 7 days, evaluated day 7 after photocoagulation)
N=C(N)Nc1ccc(C(=O)Oc2ccc3cc(C(=N)N)ccc3c2)cc1 [Nafamostat, 6′-amidino-2′-naphthyl-4-guanidinobenzoate dimethanesulfonate]	exhibited a high choroidal neovascularization inhibition rate	50.5%	26.5%	32%	exhibits an excellent choroidal neovascularization inhibitory effect	51.6%	have the same activity	–	–
N=C(N)c1ccc2cc(OC(=O)c3ccc(NC4=NCCN4)cc3)ccc2c1 [FUT-187, 6′-amidino-2′-naphthyl-(4-(4,5-dihydro-1H-2-imidazolyl)amino) benzoate dimethanesulfonate]	exhibited a high choroidal neovascularization inhibition rate	40.1%	–	39.5%	exhibits an excellent choroidal neovascularization inhibitory effect	–	have the same activity	71.4%	–
CCOC(=O)c1ccc(OC(=O)CCCCCNC(=N)N)cc1 [Gabexate, ethyl-4-(6-guanidinohexanoyloxy)benzoate methanesulfonate]	did not exhibit a choroidal neovascularization inhibitory effect	–	–	–	–	–	has a trypsin inhibitory activity	–	−30.2%
